Values joined by “and” are separate entries in the source; they are usually repeats but may differ in a detail not shown here. Identical values can stand only once. Active and inactive are the calls of the source. The rule behind the calls is not given here.
Columns and labels:
[1] = Drug concentration in CD-1 mouse liver at 8 mg/kg, po measured after 8 hrs by LC-MS/MS analysis; format: ADME, organism-based; conditions: read-out: Ct
[2] = Ratio of Cmax in liver to plasma in CD-1 mouse at 8 mg/kg, po by LC-MS/MS analysis; format: ADME, organism-based
[3] = Cytotoxicity against human HepG2.2.15 cells assessed as reduction in cell viability measured after 4 days by CellTiter-Glo reagent based assay; set-up: species or system HepG2 2.2.15; conditions: time 4 day
[4] = AUC (last) in CD-1 mouse plasma at 8 mg/kg, po measured for 24 hrs by LC-MS/MS analysis; format: ADME, organism-based; set-up: route oral, dose 8 mg/kg, time 24 hrs
[5] = tested on: OATP1B3; experiment: Ratio of drug uptake in HEK293 cells transfected with OATP1B3 (unknown origin) in absence of transporter inhibitor, estradiol-17beta-glucuronide to drug uptake in HEK293 cells in absence of transporter inhibitor, estradiol-17beta-glucuronide by LC-MS/MS analysis; format: ADME, cell-based; conditions: human, HEK293 cells transfected with OATP1B3 versus HEK293 cells
[6] = Metabolic stability in mouse liver microsomes assessed as half life preincubated with compound for 10 mins followed by NADPH regenerating system addition and measured for 60 mins by LC/MS-MS analysis; format: ADME, Microsome; conditions: time 70 min
[7] = target: Cytochrome P450 2C19 (Homo sapiens, UniProt P33261); experiment: Inhibition of CYP2C19 in human liver microsomes using mephenytoin as substrate preincubated for 5 mins followed by NADPH addition by LC-MS/MS analysis; format: ADME
[8] = AUC (last) in CD-1 mouse plasma at 3 mg/kg, iv measured for 24 hrs by LC-MS/MS analysis; format: ADME, organism-based; set-up: route intravenous, time 24 hrs, dose 3 mg/kg
[9] = Half life in CD-1 mouse liver at 8 mg/kg, po measured for 24 hrs by LC-MS/MS analysis; format: ADME, organism-based
[10] = target: T1, Cytochrome P450 2B6 (Homo sapiens, UniProt P20813); experiment: Inhibition of CYP2B6 in human liver microsomes using bupropion as substrate preincubated for 5 mins followed by NADPH addition by LC-MS/MS analysis; format: ADME
T1 sequence (P20813 whole entry): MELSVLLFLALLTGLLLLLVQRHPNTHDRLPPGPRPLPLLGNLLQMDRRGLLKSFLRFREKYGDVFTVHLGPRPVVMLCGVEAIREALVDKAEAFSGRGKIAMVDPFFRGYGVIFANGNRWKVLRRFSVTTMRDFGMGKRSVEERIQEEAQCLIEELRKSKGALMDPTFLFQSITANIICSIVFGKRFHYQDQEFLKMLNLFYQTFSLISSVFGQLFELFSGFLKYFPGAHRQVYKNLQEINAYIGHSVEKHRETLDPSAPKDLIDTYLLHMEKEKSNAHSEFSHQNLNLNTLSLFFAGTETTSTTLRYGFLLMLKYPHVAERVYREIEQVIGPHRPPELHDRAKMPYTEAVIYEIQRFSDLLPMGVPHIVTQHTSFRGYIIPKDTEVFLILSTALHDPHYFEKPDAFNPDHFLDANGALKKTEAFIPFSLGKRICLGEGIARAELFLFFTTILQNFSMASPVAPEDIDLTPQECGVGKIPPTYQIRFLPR

[11] = Drug concentration in CD-1 mouse liver at 8 mg/kg, po measured after 4 hrs by LC-MS/MS analysis; format: ADME, organism-based; conditions: read-out: Ct
[12] = tested on: OATP1B1; experiment: Ratio of drug uptake in HEK293 cells transfected with OATP1B1 (unknown origin) in absence of transporter inhibitor, estradiol-17beta-glucuronide to drug uptake in HEK293 cells in absence of transporter inhibitor, estradiol-17beta-glucuronide by LC-MS/MS analysis; format: ADME, cell-based; conditions: human, HEK293 cells transfected with OATP1B1 versus HEK293 cells
[13] = Cmax in CD-1 mouse liver at 8 mg/kg, po measured for 24 hrs by LC-MS/MS analysis; format: ADME, organism-based; set-up: route oral, dose 8 mg/kg, time 24 hrs
[14] = Apparent permeability across basolateral to apical side in MDCK-MDR1 cells at 1 uM measured after 120 mins by LC-MS/MS analysis; format: ADME, cell-based, Canis lupus familiaris; conditions: dog
[15] = Apparent permeability across apical to basolateral side in MDCK-MDR1 cells at 1 uM measured after 120 mins by LC-MS/MS analysis; format: ADME, cell-based, Canis lupus familiaris; conditions: dog
[16] = tested on: Hepatitis B virus; experiment: Antiviral activity against Hepatitis B virus infected in human HepG2.2.15 cells assessed as reduction in HBV subgenomic 2.4/2.1 kb mRNA level at 1 uM measured after 5 days by Northern blot analysis; format: functional, organism-based; conditions: time 5.0 day
[17] = Apparent permeability of the compound across basolateral to apical side in human Caco-2 cells at 10 uM incubated for 1 hr; format: ADME, cell-based
[18] = Metabolic stability in mouse liver microsomes assessed as clearance preincubated with compound for 10 mins followed by NADPH regenerating system addition and measured per mg protein for 60 mins by LC/MS-MS analysis; format: ADME, Microsome; conditions: time 70 min, read-out: CLH
[19] = Volume of distribution at steady state in CD-1 mouse at 3 mg/kg, iv measured for 24 hrs by LC-MS/MS analysis; format: ADME, organism-based; conditions: in vivo, read-out: Vdss
[20] = Efflux ratio of apparent permeability in human Caco-2 cells at 10 uM incubated for 1 hr; format: ADME, cell-based
[21] = target: T2, Cytochrome P450 3A4 (Homo sapiens, UniProt P08684); experiment: Inhibition of CYP3A4 in human liver microsomes using testosterone as substrate preincubated for 5 mins followed by NADPH addition by LC-MS/MS analysis; format: ADME
[22] = target: Terminal nucleotidyltransferase 4B (Homo sapiens) (UniProt Q8NDF8); experiment: Inhibition of Myc-DDK-tagged human PAPD5 expressed in HEK293 cells assessed as inhibition of poly-adenylation reaction using P32-labeled RNA oligonucleotides (5'-GCCUUUCAUCUCUAACUGCGAAAAAAAAAA-3') as substrate measured for 20 mins by phosphor imaging analysis; conditions: dose 0.37-10 µM
[23] = Efflux ratio of apparent permeability in MDCK-MDR1 cells at 1 uM after 120 mins by LC-MS/MS analysis; format: ADME, cell-based, Canis lupus familiaris; conditions: dog
[24] = target: Terminal nucleotidyltransferase 4A (Homo sapiens) (UniProt Q5XG87); experiment: Inhibition of human PAPD7 expressed in HEK293 cells assessed as inhibition of poly-adenylation reaction using P32-labeled RNA oligonucleotides (5'-GCCUUUCAUCUCUAACUGCGAAAAAAAAAA-3') as substrate measured for 3 hrs by phosphor imaging analysis; format: cell-based; conditions: dose 0.37-10 µM
[25] = target: T2, Cytochrome P450 3A4; experiment: Inhibition of CYP3A4 in human liver microsomes using midazolam as substrate preincubated for 5 mins followed by NADPH addition by LC-MS/MS analysis; format: ADME

T2 sequence (P08684 whole entry): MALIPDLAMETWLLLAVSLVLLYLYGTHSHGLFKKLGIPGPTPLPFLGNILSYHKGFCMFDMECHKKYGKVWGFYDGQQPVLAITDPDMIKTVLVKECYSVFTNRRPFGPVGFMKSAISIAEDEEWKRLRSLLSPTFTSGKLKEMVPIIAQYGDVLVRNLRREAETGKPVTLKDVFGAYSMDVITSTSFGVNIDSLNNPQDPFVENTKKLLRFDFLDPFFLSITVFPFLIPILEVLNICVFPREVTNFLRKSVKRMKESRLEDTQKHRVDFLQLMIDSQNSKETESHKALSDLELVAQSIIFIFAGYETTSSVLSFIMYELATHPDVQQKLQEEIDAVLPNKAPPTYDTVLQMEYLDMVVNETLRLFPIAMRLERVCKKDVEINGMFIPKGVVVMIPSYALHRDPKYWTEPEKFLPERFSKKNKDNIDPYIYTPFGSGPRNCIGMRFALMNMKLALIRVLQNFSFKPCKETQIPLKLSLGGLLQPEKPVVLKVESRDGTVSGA
Chain of Terminal nucleotidyltransferase 4A (Homo sapiens) (Q5XG87 whole entry): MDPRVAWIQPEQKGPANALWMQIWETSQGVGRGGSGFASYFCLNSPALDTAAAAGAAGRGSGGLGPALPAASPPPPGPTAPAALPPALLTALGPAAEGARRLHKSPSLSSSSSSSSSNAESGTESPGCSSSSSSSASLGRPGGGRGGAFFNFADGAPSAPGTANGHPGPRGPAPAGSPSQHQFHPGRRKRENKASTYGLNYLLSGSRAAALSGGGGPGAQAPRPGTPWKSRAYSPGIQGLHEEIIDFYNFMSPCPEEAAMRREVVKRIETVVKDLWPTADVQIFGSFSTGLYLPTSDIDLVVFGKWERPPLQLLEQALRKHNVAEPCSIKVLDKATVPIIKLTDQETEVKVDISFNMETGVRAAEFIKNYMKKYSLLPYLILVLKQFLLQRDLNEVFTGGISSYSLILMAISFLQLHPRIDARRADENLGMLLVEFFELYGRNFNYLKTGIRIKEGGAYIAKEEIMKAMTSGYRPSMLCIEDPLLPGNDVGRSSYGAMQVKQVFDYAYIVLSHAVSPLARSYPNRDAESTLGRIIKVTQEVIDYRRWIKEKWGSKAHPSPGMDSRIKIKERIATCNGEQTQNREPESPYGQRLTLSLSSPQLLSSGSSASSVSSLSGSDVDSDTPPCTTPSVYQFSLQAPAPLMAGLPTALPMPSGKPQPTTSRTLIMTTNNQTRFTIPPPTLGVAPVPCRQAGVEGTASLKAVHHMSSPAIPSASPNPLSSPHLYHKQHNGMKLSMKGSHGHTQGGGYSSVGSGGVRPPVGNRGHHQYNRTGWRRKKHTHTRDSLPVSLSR
Chain of Terminal nucleotidyltransferase 4B (Homo sapiens) (Q8NDF8 whole entry): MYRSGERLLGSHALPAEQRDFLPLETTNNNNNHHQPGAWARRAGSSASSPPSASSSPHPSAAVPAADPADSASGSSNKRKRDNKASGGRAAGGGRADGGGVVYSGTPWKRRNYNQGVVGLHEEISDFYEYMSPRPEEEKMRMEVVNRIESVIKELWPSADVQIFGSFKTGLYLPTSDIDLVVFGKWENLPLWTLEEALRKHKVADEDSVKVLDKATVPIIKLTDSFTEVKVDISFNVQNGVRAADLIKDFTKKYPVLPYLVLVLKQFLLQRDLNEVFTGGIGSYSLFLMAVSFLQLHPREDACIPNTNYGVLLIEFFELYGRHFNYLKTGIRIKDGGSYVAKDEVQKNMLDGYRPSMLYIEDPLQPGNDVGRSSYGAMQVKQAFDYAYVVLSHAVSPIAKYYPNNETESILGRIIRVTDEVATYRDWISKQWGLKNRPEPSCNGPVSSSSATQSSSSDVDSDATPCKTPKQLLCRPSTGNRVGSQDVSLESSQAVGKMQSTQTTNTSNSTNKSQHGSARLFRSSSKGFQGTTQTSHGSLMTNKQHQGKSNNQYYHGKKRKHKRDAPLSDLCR
Chain of Cytochrome P450 2C19 (P33261 whole entry): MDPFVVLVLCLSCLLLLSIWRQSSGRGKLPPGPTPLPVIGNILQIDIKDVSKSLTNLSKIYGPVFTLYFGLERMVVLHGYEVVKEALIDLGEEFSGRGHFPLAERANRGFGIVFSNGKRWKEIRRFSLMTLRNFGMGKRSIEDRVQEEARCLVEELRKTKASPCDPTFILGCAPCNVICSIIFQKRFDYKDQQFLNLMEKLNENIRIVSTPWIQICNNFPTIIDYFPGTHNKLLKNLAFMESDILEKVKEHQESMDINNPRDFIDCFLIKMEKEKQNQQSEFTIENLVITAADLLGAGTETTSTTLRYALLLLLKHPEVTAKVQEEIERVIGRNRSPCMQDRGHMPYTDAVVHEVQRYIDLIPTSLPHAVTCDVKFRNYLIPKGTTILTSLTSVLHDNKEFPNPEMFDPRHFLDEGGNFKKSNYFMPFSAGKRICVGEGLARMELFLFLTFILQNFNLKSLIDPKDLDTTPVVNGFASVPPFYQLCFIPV

concentration at 8 h [1]: 63 ng/mL and 140 nM
Kp [2]: 20.7
AUC(0-t) at 24 h [4]: 34.7 ng·h/mL
uptake ratio [5]: 24.8
half-life [6]: 28.9 h
IC50 [7]: > 10 µM
AUC(0-t) at 24 h [8]: 255 ng·h/mL
half-life [9]: 3.54 h
IC50 [10]: > 10 µM
concentration at 4 h [11]: 138 ng/mL and 300 nM
uptake ratio [12]: 19
Cmax [13]: 333 ng/mL
Papp B→A at 2 h, 1 µM [14]: 0.55 ×10⁻⁶ cm/s
Papp A→B at 2 h, 1 µM [15]: 0.38 ×10⁻⁶ cm/s
Papp B→A at 1 h, 10 µM [17]: 2.06 ×10⁻⁶ cm/s
microsomal CLint [18]: 0.8 µL/min/mg
Vd [19]: 3.26 L/kg
efflux ratio at 1 h, 10 µM [20]: 5.3
IC50 [21]: > 10 µM
inhibition [22]: Dose-Dependent Effect
efflux ratio at 2 h, 1 µM [23]: 1.47
inhibition [24]: Dose-Dependent Effect
IC50 [25]: > 10 µM
SMILES: COc1cc2c(cc1OCCCCCCC(=O)O)C[C@@H](C(C)C)n1cc(C(=O)O)c(=O)cc1-2
CC50 at 96 h [3]: > 10 µM
Activity [16]: Active

From ChEMBL document CHEMBL4808208, “Hepatoselective Dihydroquinolizinone Bis-acids for HBsAg mRNA Degradation” (ACS Med Chem Lett, 2021)
